From US9718808B2, “Inhibitors of the renal outer medullary potassium channel” (Merck Sharp & Dohme Corp., priority 2014, dated 2017)

Target: ROMK (Kir1.1) channel (Homo sapiens (Human), UniProt P48048)
Assay: Thallium Flux Assay
Type: cell-based
Procedure: A Thallium Flux Assay was performed on each of the final product compounds of the Examples. This assay has been described previously; see, e.g., PCT Published Application WO 2013/062900.

Sequence of ROMK (Kir1.1) channel (P48048 whole entry): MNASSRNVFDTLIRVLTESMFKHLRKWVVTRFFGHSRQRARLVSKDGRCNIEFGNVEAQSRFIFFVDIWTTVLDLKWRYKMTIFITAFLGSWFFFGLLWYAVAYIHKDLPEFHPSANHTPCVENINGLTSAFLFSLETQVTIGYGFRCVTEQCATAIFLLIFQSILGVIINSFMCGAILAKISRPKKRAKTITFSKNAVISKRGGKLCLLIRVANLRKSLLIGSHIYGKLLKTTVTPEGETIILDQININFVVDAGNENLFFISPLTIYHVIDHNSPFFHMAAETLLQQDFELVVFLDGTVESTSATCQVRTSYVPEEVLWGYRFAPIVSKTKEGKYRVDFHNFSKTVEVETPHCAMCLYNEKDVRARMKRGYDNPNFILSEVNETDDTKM

CC1=C(N2CC[C@]3(CC[C@@H](NCc4ccc(-n5cnnn5)nn4)CC3)C2=O)COC1=O [Example 1, (5r,8r)-2-(4-methyl-5-oxo-2,5-dihydrofuran-3-yl)-8-({[6-(1H-tetrazol-1-yl)pyridazin-3-yl]methyl}amino)-2-azaspiro[4.5]decan-1-one]
IC50: 10 nM

CC1=C(N2CC[C@]3(CC[C@@H](NCCc4ccc5c(c4)COC5=O)CC3)C2=O)COC1=O [Example 2, (5r,8r)-2-(4-methyl-5-oxo-2,5-dihydrofuran-3-yl)-8-{[2-(1-oxo-1,3-dihydro-2-benzofuran-5-yl)ethyl]amino}-2-azaspiro[4.5]decan-1-one]
IC50: 44 nM

CC1=C(N2CC[C@]3(CC[C@H](NCCc4ccc5c(c4)COC5=O)CC3)C2=O)COC1=O [Example 3, (5s,8s)-2-(4-methyl-5-oxo-2,5-dihydrofuran-3-yl)-8-{[2-(1-oxo-1,3-dihydro-2-benzofuran-5-yl)ethyl]amino}-2-azaspiro[4.5]decan-1-one]
IC50: 200 nM

CC1=C(N2CC[C@]3(CC[C@H](NCc4ccc5c(c4C)COC5=O)CC3)C2=O)COC1=O [Example 4, (5s,8s)-8-(((4-methyl-1-oxo-1,3-dihydroisobenzofuran-5-yl)methyl)amino)-2-(4-methyl-5-oxo-2,5-dihydrofuran-3-yl)-2-azaspiro[4.5]decan-1-one]
IC50: 350 nM

CC1=C(N2CC[C@]3(CC[C@@H](NCc4ccc(-n5cnnn5)nc4)CC3)C2=O)COC1=O [Example 5, (5r,8r)-2-(4-methyl-5-oxo-2,5-dihydrofuran-3-yl)-8-({[6-(1H-tetrazol-1-yl)pyridin-3-yl]methyl}amino)-2-azaspiro[4.5]decan-1-one]
IC50: 16 nM

CC1=C(N2CC[C@]3(CC[C@H](NCc4ccc(-n5cnnn5)nc4)CC3)C2=O)COC1=O [Example 6, (5s,8s)-2-(4-methyl-5-oxo-2,5-dihydrofuran-3-yl)-8-({[6-(1H-tetrazol-1-yl)pyridin-3-yl]methyl}amino)-2-azaspiro[4.5]decan-1-one]
IC50: 450 nM

CC1=C(N2CC[C@]3(CC[C@H](NCc4ccc(-n5cnnn5)cn4)CC3)C2=O)COC1=O [Example 7A, (5s,8s)-2-(4-methyl-5-oxo-2,5-dihydrofuran-3-yl)-8-({[5-(1H-tetrazol-1-yl)pyridin-2-yl]methyl}amino)-2-azaspiro[4.5]decan-1-one]
IC50: 24 nM

CC1=C(N2CC[C@]3(CC[C@@H](NCc4ccc(-n5cnnn5)cn4)CC3)C2=O)COC1=O [Example 7B, (5r,8r)-2-(4-methyl-5-oxo-2,5-dihydrofuran-3-yl)-8-({[5-(1H-tetrazol-1-yl)pyridin-2-yl]methyl}amino)-2-azaspiro[4.5]decan-1-one]
IC50: 710 nM

CC1=C(N2CC[C@]3(CC[C@@H](N[C@@H](C)c4ccc(-n5cnnn5)nc4)CC3)C2=O)COC1=O [Example 9, (5S,8r)-2-(4-methyl-5-oxo-2,5-dihydrofuran-3-yl)-8-({(1S)-1-[6-(1H-tetrazol-1-yl)pyridin-3-yl]ethyl}amino)-2-azaspiro[4.5]decan-1-one]
IC50: 34 nM

CC1=C(N2CC[C@]3(CC[C@@H](N[C@H](C)c4ccc(-n5cnnn5)nc4)CC3)C2=O)COC1=O [Example 10, (5R,8r)-8-(((R)-1-(6-(1H-tetrazol-1-yl)pyridin-3-yl)ethyl)amino)-2-(4-methyl-5-oxo-2,5-dihydrofuran-3-yl)-2-azaspiro[4.5]decan-1-one]
IC50: 18 nM

CC1=C(N2CC[C@]3(CC[C@@H](NCc4ccc5c(c4)Cn4nnnc4-5)CC3)C2=O)COC1=O [Example 11, (5r,8r)-2-(4-methyl-5-oxo-2,5-dihydrofuran-3-yl)-8-[(5H-tetrazolo[5,1-a]isoindol-7-ylmethyl)amino]-2-azaspiro[4.5]decan-1-one]
IC50: 110 nM

CC1=C(N2CC[C@]3(CC[C@@H](NCc4nnc(-n5cnnn5)cc4C)CC3)C2=O)COC1=O [Example 12, (5r,8r)-2-(4-methyl-5-oxo-2,5-dihydrofuran-3-yl)-8-({[4-methyl-6-(1H-tetrazol-1-yl)pyridazin-3-yl]methyl}amino)-2-azaspiro[4.5]decan-1-one]
IC50: 8.3 nM

CC1=C(N2CC[C@]3(CC[C@@H](NCc4ncc(-n5cnnn5)nc4C)CC3)C2=O)COC1=O [Example 14, (5r,8r)-2-(4-methyl-5-oxo-2,5-dihydrofuran-3-yl)-8-({[3-methyl-5-(1H-tetrazol-1-yl)pyrazin-2-yl]methyl}amino)-2-azaspiro[4.5]decan-1-one]
IC50: 30 nM

CC1=C(N2CC[C@]3(CC[C@@H](N[C@H](C)c4ccc(-n5cnnn5)nn4)CC3)C2=O)COC1=O [Example 15, (5R,8r)-2-(4-methyl-5-oxo-2,5-dihydrofuran-3-yl)-8-({(1R)-1-[6-(1H-tetrazol-1-yl)pyridazin-3-yl]ethyl}amino)-2-azaspiro[4.5]decan-1-one]
IC50: 92 nM

CC1=C(N2CC[C@]3(CC[C@H](N[C@H](C)c4ccc5c(c4)CCc4nnnn4-5)CC3)C2=O)COC1=O [Example 17, (5S,8s)-8-{[(1R)-1-(4,5-dihydrotetrazolo[1,5-a]quinolin-7-yl)ethyl]amino}-2-(4-methyl-5-oxo-2,5-dihydrofuran-3-yl)-2-azaspiro[4.5]decan-1-one]
IC50: 340 nM

CC1=C(N2CC[C@]3(CC[C@@H](N[C@H](C)c4ccc5c(c4)CCc4nnnn4-5)CC3)C2=O)COC1=O [Example 18, (5R,8r)-8-{[(1R)-1-(4,5-dihydrotetrazolo[1,5-a]quinolin-7-yl)ethyl]amino}-2-(4-methyl-5-oxo-2,5-dihydrofuran-3-yl)-2-azaspiro[4.5]decan-1-one]
IC50: 330 nM

CC1=C(N2CC[C@]3(CC[C@@H](N[C@@H](C)c4ccc5c(c4)CCc4nnnn4-5)CC3)C2=O)COC1=O [Example 21, (5S,8r)-8-{[(1S)-1-(4,5-dihydrotetrazolo[1,5-a]quinolin-7-yl)ethyl]amino}-2-(4-methyl-5-oxo-2,5-dihydrofuran-3-yl)-2-azaspiro[4.5]decan-1-one]
IC50: 44 nM

C[C@H]1C[C@]2(CC[C@H](NCc3ccc(-n4cnnn4)nc3)CC2)C(=O)N1C1=CC(=O)OC1 [Example 22, (3S,5s,8R)-3-methyl-2-(5-oxo-2,5-dihydrofuran-3-yl)-8-({[6-(1H-tetrazol-1-yl)pyridin-3-yl]methyl}amino)-2-azaspiro[4.5]decan-1-one]
IC50: 130 nM

C[C@@H]1C[C@]2(CC[C@@H](NCc3ccc(-n4cnnn4)nc3)CC2)C(=O)N1C1=CC(=O)OC1 [Example 23, (3R,5r,8R)-3-methyl-2-(5-oxo-2,5-dihydrofuran-3-yl)-8-({[6-(1H-tetrazol-1-yl)pyridin-3-yl]methyl}amino)-2-azaspiro[4.5]decan-1-one]
IC50: 720 nM

CC1=C(N2CC[C@]3(CC[C@@H](N[C@H](C)c4cnc(-n5cnnn5)cn4)CC3)C2=O)COC1=O [Example 24, (5R,8r)-2-(4-methyl-5-oxo-2,5-dihydrofuran-3-yl)-8-({(1R)-1-[5-(1H-tetrazol-1-yl)pyrazin-2-yl]ethyl}amino)-2-azaspiro[4.5]decan-1-one]
IC50: 120 nM

C[C@@H]1C[C@]2(CC[C@H](NCc3cnc(-n4cnnn4)cn3)CC2)C(=O)N1C1=CC(=O)OC1 [Example 26, (3R,5s,8S)-3-methyl-2-(5-oxo-2,5-dihydrofuran-3-yl)-8-({[5-(1H-tetrazol-1-yl)pyrazin-2-yl]methyl}amino)-2-azaspiro[4.5]decan-1-one]
IC50: 190 nM

C[C@@H]1C[C@]2(CC[C@H](NCc3ccc(-n4cnnn4)nc3)CC2)C(=O)N1C1=CC(=O)OC1 [Example 27, (3R,5s,8S)-3-methyl-2-(5-oxo-2,5-dihydrofuran-3-yl)-8-({[6-(1H-tetrazol-1-yl)pyridin-3-yl]methyl}amino)-2-azaspiro[4.5]decan-1-one]
IC50: 38 nM

C[C@H]1C[C@]2(CC[C@H](NCc3cnc(-n4cnnn4)cn3)CC2)C(=O)N1C1=CC(=O)OC1 [Example 28, (3S,5s,8R)-3-methyl-2-(5-oxo-2,5-dihydrofuran-3-yl)-8-({[5-(1H-tetrazol-1-yl)pyrazin-2-yl]methyl}amino)-2-azaspiro[4.5]decan-1-one]
IC50: 250 nM

CC1=C(N2CC[C@]3(CC[C@@H](N[C@@H](C)c4ccc(-n5cnnn5)cn4)CC3)C2=O)COC1=O [Example 29, (5S,8r)-2-(4-methyl-5-oxo-2,5-dihydrofuran-3-yl)-8-({(1S)-1-[5-(1H-tetrazol-1-yl)pyridin-2-yl]ethyl}amino)-2-azaspiro[4.5]decan-1-one]
IC50: 20 nM

CC1=C(N2CC[C@]3(CC[C@@H](N[C@H](C)c4ccc5c(c4)Cn4nnnc4-5)CC3)C2=O)COC1=O [Example 30, (5R,8r)-2-(4-methyl-5-oxo-2,5-dihydrofuran-3-yl)-8-{[(1R)-1-(5H-tetrazolo[5,1-a]isoindol-7-yl)ethyl]amino}-2-azaspiro[4.5]decan-1-one]
IC50: 150 nM

CC1=C(N2CC[C@]3(CC[C@@H](N[C@@H](C)c4ccc5c(c4)Cn4nnnc4-5)CC3)C2=O)COC1=O [Example 31, (5S,8r)-2-(4-methyl-5-oxo-2,5-dihydrofuran-3-yl)-8-{[(1S)-1-(5H-tetrazolo[5,1-a]isoindol-7-yl)ethyl]amino}-2-azaspiro[4.5]decan-1-one]
IC50: 260 nM

CC1=C(N2CC[C@]3(CC[C@@H](N[C@H](C)c4ccc(-n5cnnn5)cn4)CC3)C2=O)COC1=O [Example 32]
IC50: 110 nM

CC1=C(N2CC[C@]3(CC[C@H](NCc4ccc(-n5ncnn5)cc4)CC3)C2=O)COC1=O [Example 40, (5s,8s)-2-(4-methyl-5-oxo-2,5-dihydrofuran-3-yl)-8-{[4-(2H-tetrazol-2-yl)benzyl]amino}-2-azaspiro[4.5]decan-1-one]
IC50: 110 nM

CC1=C(N2CC[C@]3(CC[C@@H](NCc4ccc(-n5ncnn5)cc4)CC3)C2=O)COC1=O [Example 41, (5r,8r)-2-(4-methyl-5-oxo-2,5-dihydrofuran-3-yl)-8-{[4-(2H-tetrazol-2-yl)benzyl]amino}-2-azaspiro[4.5]decan-1-one]
IC50: 3.3 nM

CC1=C(N2CC[C@]3(CC[C@](C)(NCc4ccc(-n5cnnn5)nn4)CC3)C2=O)COC1=O [Example 42, (5s,8s)-8-methyl-2-(4-methyl-5-oxo-2,5-dihydrofuran-3-yl)-8-({[6-(1H-tetrazol-1-yl)pyridazin-3-yl]methyl}amino)-2-azaspiro[4.5]decan-1-one]
IC50: 70 nM
